The record followed here is publication PMC7247818, “Demonstration of Binding Induced Structural Plasticity in a SH2 Domain” (Frontiers in Molecular Biosciences, 2020).

Molecules are shown by their SMILES. Where a SMILES comes first, the peptide text is derived from it.

Common to all, as to settings: 10°C
In experiment [1] the target is T1, N-SH2 domain of PI3K, L59A variant (Homo sapiens, UniProt P27986, L380A).
T1 construct: made in house
Put plainly: Stopped-flow binding kinetics, N-SH2 L59A. As for the experimental part: (§1) N-SH2 wild-type and all the site-directed variants were expressed and purified as described previously ([Visconti et al., 2019]). All the mutants were obtained using a QuickChange Lightning Site-Directed Mutagenesis kit (Agilent technologies), accordingly to manufacturer instructions. Peptides with sequence TNSEDNpYVPMNPG mimicking wild-type Gab2 and TNSEDNpYVPANPG mimicking the M457A variant of Gab2 were purchased from GenScript Biotech Corporation.
(§2) Binding kinetics experiments were performed using a single-mixing SX-18 stopped-flow instrument (Applied Photophysics); all binding experiments were conducted in 50 mM Hepes pH 7.4 300 mM NaCl at 10°C. Excitation was at 280 nm and emission was collected using a […] cut-off glass filter. Pseudo-first order binding experiments were performed mixing a constant concentration of dansylated Gab2_448–460 and Gab2_448–460 M457A (1 μM) vs. N-SH2 wt and its mutants at concentrations ranging from […]. For each N-SH2 concentration, usually 5 individual traces were averaged and in all cases the fluorescence time courses obtained was satisfactorily fitted by using a single exponential equation.
One of the aims of this study is to depict the molecular details of the interaction between the N-SH2 domain of PI3K and Gab2. […] To monitor binding by fluorescence, a dansyl group was added at the N-terminus of the peptide. The binding reaction was monitored by stopped-flow experiments following the change in FRET signal, taking advantage of the two Trp residues on the N-SH2 domain in positions 12 and 14 as fluorescence donor and the dansyl group on Gab2_448–460 as acceptor. […]
with kon being the slope of the line and koff the intercept with the y-axis. […] Kinetic parameters extracted from data together with the calculated changes in activation and equilibrium free energies are reported in Table 1. […]

The target of another experiment is T2, N-SH2 domain of PI3K, WT (Homo sapiens, UniProt P27986).
T2 construct: made in house
T2 sequence (P27986 333-428 limits assumed): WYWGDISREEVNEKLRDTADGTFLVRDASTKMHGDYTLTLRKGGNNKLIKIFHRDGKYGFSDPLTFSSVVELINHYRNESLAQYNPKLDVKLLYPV
The experiment is described as follows: Stopped-flow binding kinetics, N-SH2 WT. As for the experimental part: as §1, §2
(§3) One of the aims of this study is to depict the molecular details of the interaction between the N-SH2 domain of PI3K and Gab2. A powerful strategy to achieve this goal relies on perturbing the system by producing conservative site-directed variants while monitoring the effect of mutations on the association and dissociation rate constants between the interacting partners (kon and koff respectively). Thus, we designed and successfully produced 21 site-directed variants of the N-SH2 domain and challenged them vs. a peptide mimicking the region of Gab2 ranging from residue 448–460 (Gab2_448–460), containing the pY-X-X-M motif that is specifically recognized by the N-SH2 domain ([Waksman et al., 1992]; [Songyang et al., 1993]). The choise of mutations was designed in analogy to phi-value analysis methodology in protein folding studies ([Fersht and Sato, 2004]). […] To monitor binding by fluorescence, a dansyl group was added at the N-terminus of the peptide. The binding reaction was monitored by stopped-flow experiments following the change in FRET signal, taking advantage of the two Trp residues on the N-SH2 domain in positions 12 and 14 as fluorescence donor and the dansyl group on Gab2_448–460 as acceptor. The experiments were performed in pseudo-first order conditions with Gab2_448–460 at fixed concentration of 1 μM rapidly mixed vs. large excess of N-SH2 wt and its variants, ranging from 4 to 14 μM, in buffer Hepes 50 mM, NaCl 300 mM, pH 7.4, at 10°C.
(§4) with kon being the slope of the line and koff the intercept with the y-axis. Since indirect calculation of koff obtained by extrapolation is associated with high experimental error, we performed displacement experiments to directly measure koff by challenging a pre-incubated complex of dansylated Gab2_448–460 and N-SH2 domain both at the concentration of 1 μM vs. a large excess of non-dansylated Gab2_448–460 (50 μM). Kinetic parameters extracted from data together with the calculated changes in activation and equilibrium free energies are reported in Table 1. Analysis of kinetic data highlights that T48S, L51A, and L59A variations cause a detectable decrease of the affinity of the domain for Gab2_448–460 of ∼10-fold, affecting both the kon and koff. […] Since L99 residue is part of the binding pocket, this dramatic effect on the binding affinity is expected.
(§5) SH2 domains bind ligands with a phosphorylated tyrosine in their sequence. The N-SH2 domain of PI3K is known to recognize a specific consensus sequences that present a methionine in position +3 in respect to the phosphotyrosine (M457 in Gab2). […]

Experiment [2] has as its target T3, N-SH2 domain of PI3K, V80A variant (Homo sapiens, UniProt P27986, V401A).
T3 construct: made in house
Put plainly: Stopped-flow binding kinetics, N-SH2 V80A. As for the experimental part: as §1, §2, §3, §4, §5

The target in experiment [3] is T4, N-SH2 domain of PI3K, T76S variant (Homo sapiens, UniProt P27986, T397S).
T4 construct: made in house
T4 sequence (P27986 333-428 T397S): as the sequence (P27986 333-428 limits assumed) above, with T65S counted along it
Put plainly: Stopped-flow binding kinetics, N-SH2 T76S. As for the experimental part: as §1, §2, §3, §4, §5

In experiment [4] the target is T5, N-SH2 domain of PI3K, T29S variant (Homo sapiens, UniProt P27986, T350S).
T5 construct: made in house
T5 sequence (P27986 333-428 T350S): as the sequence (P27986 333-428 limits assumed) above, with T18S counted along it
The experiment is described as follows: Stopped-flow binding kinetics, N-SH2 T29S. As for the experimental part: as §1, §2, §3, §4, §5

In experiment [5] the target is T6, N-SH2 domain of PI3K, V101A variant (Homo sapiens, UniProt P27986, V422A).
T6 construct: made in house
T6 sequence (P27986 333-428 V422A): as the sequence (P27986 333-428 limits assumed) above, with V90A counted along it
The experiment is described as follows: Stopped-flow binding kinetics, N-SH2 V101A. As for the experimental part: as §1, §2, §3, §4, §5

Experiment [6] addresses T7, N-SH2 domain of PI3K, P74A variant (Homo sapiens, UniProt P27986, P395A).
T7 construct: made in house
The experiment is described as follows: Stopped-flow binding kinetics, N-SH2 P74A. As for the experimental part:
as §1, §2, §3, §4, §5

For experiment [7], the target named is T8, N-SH2 domain of PI3K, I17V variant (Homo sapiens, UniProt P27986, I338V).
T8 construct: made in house
T8 sequence (P27986 333-428 I338V): as the sequence (P27986 333-428 limits assumed) above, with I6V counted along it
Put plainly: Stopped-flow binding kinetics, N-SH2 I17V. As for the experimental part:
as §1, §2, §3, §4, §5

Setting [8] is: displacement experiment, pH 7.4, 300 mM NaCl.
The mark [9] stands for this setting: stopped-flow FRET, 1 μM dansylated peptide, 50 mM Hepes pH 7.4, 300 mM NaCl.
Setting [10] is: stopped-flow kinetics, pH 7.4, 300 mM NaCl.

T7 sequence (P27986 333-428 P395A): as the sequence (P27986 333-428 limits assumed) above, with P63A counted along it
T3 sequence (P27986 333-428 V401A): as the sequence (P27986 333-428 limits assumed) above, with V69A counted along it
T1 sequence (P27986 333-428 L380A): as the sequence (P27986 333-428 limits assumed) above, with L48A counted along it

With `CSCC[C@H](NC(=O)[C@@H]1CCCN1C(=O)[C@@H](NC(=O)[C@H](Cc1ccc(OP(=O)(O)O)cc1)NC(=O)[C@H](CC(N)=O)NC(=O)[C@H](CC(=O)O)NC(=O)[C@H](CCC(=O)O)NC(=O)[C@H](CO)NC(=O)[C@H](CC(N)=O)NC(=O)[C@@H](N)[C@@H](C)O)C(C)C)C(=O)N[C@@H](CC(N)=O)C(=O)N1CCC[C@H]1C(=O)NCC(=O)O` [Gab2_448–460] (HELM PEPTIDE1{T.N.S.E.D.N.[O=C([C@H](Cc1ccc(OP(=O)(O)O)cc1)N[*:1])[*:2]].V.P.M.N.P.G}$$$$V2.0), the off-rate constant (koff) (usually a measure of how fast the partners let go of each other) in experiment [1] (setting [8]) is 21 ± 1 s⁻¹; at N-SH2 domain of PI3K, WT (displacement of 1 μM complex by 50 μM non-dansylated Gab2_448–460, 50 mM Hepes pH 7.4, 300 mM NaCl), 3.9 ± 0.2 s⁻¹; in experiment [2] (setting [8]), 4.4 ± 0.2 s⁻¹; in experiment [3] (setting [8]), 5.3 ± 0.3 s⁻¹; in experiment [4] (setting [8]) it was 4.3 ± 0.2 s⁻¹; in experiment [5] (setting [8]), 7 ± 0.4 s⁻¹. Moreover, the koff in experiment [6] (setting [8]) was 27 ± 1 s⁻¹; in experiment [7] (setting [8]), 4.5 ± 0.2 s⁻¹. For the same molecule, the kon (commonly the second-order rate constant of association) turned out to be 6.7e+06 ± 1e+06 M⁻¹ s⁻¹ in experiment [1] (setting [9]); 1.95e+07 ± 1e+06 M⁻¹ s⁻¹ on N-SH2 domain of PI3K, WT (stopped-flow FRET, 1 μM dansylated peptide vs excess N-SH2, 50 mM Hepes pH 7.4, 300 mM NaCl, slope of kobs); 1.6e+07 ± 1.2e+06 M⁻¹ s⁻¹ in experiment [2] (setting [9]); 1.69e+07 ± 1.3e+06 M⁻¹ s⁻¹ in experiment [3] (setting [9]); 1.75e+07 ± 500000 M⁻¹ s⁻¹ in experiment [4] (setting [9]); 1.34e+07 ± 400000 M⁻¹ s⁻¹ in experiment [5] (setting [9]). The on-rate (kon) is 4.87e+07 ± 1.5e+06 M⁻¹ s⁻¹ in experiment [6] (setting [9]) and 2.44e+07 ± 1.7e+06 M⁻¹ s⁻¹ in experiment [7] (setting [9]). Moreover, the Kd (usually the constant that tells how readily two partners part at equilibrium) turned out to be 3.2 ± 0.2 µM in experiment [1] (setting [10]); 0.2 ± 0.1 µM on N-SH2 domain of PI3K, WT (from stopped-flow kinetics, pH 7.4, 300 mM NaCl); 0.3 ± 0.1 µM in experiment [2] (setting [10]); 0.3 ± 0.1 µM in experiment [3] (setting [10]); 0.3 ± 0.1 µM in experiment [4] (setting [10]); 0.5 ± 0.1 µM in experiment [5] (setting [10]). Moreover, the figures for the Kd in experiment [6] (setting [10]) and in experiment [7] (setting [10]) were 0.6 ± 0.1 µM and 0.2 ± 0.1 µM, respectively.
